Results taken from patent publication US20050009776A1, “Method of treating atrial fibrillation or atrial flutter” (Aderis Pharmaceuticals, Inc., priority 2003, published 2005).
Marks after values point to notes of the source that are not given here.

Tests used:
[1] = system: patients with atrial fibrillation; experiment: Example 4: placebo-controlled 15-minute i.v. infusion, heart rate and blood pressure in atrial fibrillation; type: in vivo, human
Description: A double blind, placebo-controlled study was designed to establish the i.v. dose range of DTI-0009 that safely reduces heart rates in patients with atrial fibrillation. […] The patients' heart rates and blood pressures were measured periodically throughout the treatment period and for 75 and 80 minutes post-infusion, respectively. Safety assessments were made throughout the study and for up to three to seven days post-dose.

[2] = Example 5: pharmacokinetics and renal function markers of short i.v. infusions in healthy subjects; type: in vivo, human
Description: A study was designed to determine the dose dependent pharmacokinetics (PK) of short i.v. infusions of DTI-0009 in healthy subjects. Ten healthy young volunteer (ages 21 to 35 years old) received a 30-minute infusion of 1 μg/kg DTI-0009, or 5 μg/kg DTI-0009 or saline on three different occasions. The subjects were hydrated by a saline infusion ([…]) for one hour prior to and five hours after the start of the drug infusion. Serial plasma and urine samples were taken over 24 hours to measure DTI-0009 concentrations (as well as glucuronide, in urine only), creatinine, sodium and potassium by validated methods. The following renal function markers were assessed over time: urinary flow rate (UF), creatinine clearance (CLCrea), sodium clearance (CLNa) and potassium clearance (CLK). Additionally, noncompartmental PK analysis was performed and instantaneous renal clearance (CLren^inst) was estimated as a function of UF and CLcrea.

[3] = system: A1 receptor / A3 receptor; experiment: Affinity for adenosine A1 receptor relative to A3 receptor; type: binding
Text: Therefore, DTI-0009 may be capable of terminating episodes of supraventricular arrythymias at doses that have little effect on normal heart rate or blood pressure.

[4] = system: adult patients with rapid atrial fibrillation (AF); experiment: Example 1: ventricular rate control in atrial fibrillation, 15-minute i.v. loading dose plus maintenance dose; type: in vivo, human
Description: A randomized, parallel-group, open label, dose-ranging study of DTI-0009 as a 15-minute intravenous loading dose (LD) followed by a maintenance dose (MD) infusion for up to 20 hours in adult patients with rapid atrial fibrillation (AF) (>120 bpm) was conducted. 78 patients were randomized to receive one of three LD regimens. If the ventricular rate (VR) was between 70 and 90 bpm 5 minutes after the end of the LD, then patients were randomized to one of the following three MDs of DTI-0009: 1.75 μg/kg/hr, 2.25 μg/kg/hr, or 2.75 μg/kg/hr. The MD was adjusted to keep the VR within the 70-90 bpm range.
63 of 69 patients completed the LD, 20 patients received a MD, and 18 patients completed at least 3 hours of MD. The VR remained below 100 bpm across all the dosing regimens during the 3-hour MD.

With CCNC(=O)[C@H]1O[C@@H](n2cnc3c(NC4CCCC4)ncnc32)[C@H](O)[C@@H]1O [DTI-0009, N^6-cyclopentyl-5′-(N-ethyl)carboxamidoadenosine] the DBP ([1]; 2 μg/kg (11 patients), 30 minutes after start of infusion (BP 35 minutes, footnote c), Baseline 82.2) was 77.8^e mmHg, the SBP ([1]; 2 μg/kg (11 patients), 30 minutes after start of infusion (BP 35 minutes, footnote c), Baseline 130.7) was 129.5^e mmHg and the DBP ([1]; 2 μg/kg (n = 12), 5 minutes after start of infusion, Baseline 82.2) was 87.7 mmHg. For the same compound, the HR ([1]; 2 μg/kg (n = 12), 5 minutes after start of infusion, Baseline 129.9) was 117.1^a bpm, the SBP ([1]; 2 μg/kg (n = 12), 5 minutes after start of infusion, Baseline 130.7) was 136.6 mmHg and the DBP ([1]; 2 μg/kg (n = 12), 15 minutes after start of infusion, Baseline 82.2) was 84.6 mmHg. The HR ([1]; 2 μg/kg (n = 12), 15 minutes after start of infusion, Baseline 129.9) was 102.4^b bpm, the SBP ([1]; 2 μg/kg (n = 12), 15 minutes after start of infusion, Baseline 130.7) was 134.4 mmHg and the HR ([1]; 2 μg/kg (n = 12), 30 minutes after start of infusion, Baseline 129.9) was 112.1^a bpm. The HR ([1]; 4 μg/kg (8 patients), 30 minutes after start of infusion, Baseline 143.9) was 115.1^a,d bpm, the DBP ([1]; 4 μg/kg (n = 9), 5 minutes after start of infusion, Baseline 75.0) was 76.3 mmHg and the SBP ([1]; 4 μg/kg (n = 9), 5 minutes after start of infusion, Baseline 132.1) was 127.4 mmHg. The HR ([1]; 4 μg/kg (n = 9), 5 minutes after start of infusion, Baseline 143.9) was 114.9^a bpm, the DBP ([1]; 4 μg/kg (n = 9), 15 minutes after start of infusion, Baseline 75.0) was 68.7 mmHg and the SBP ([1]; 4 μg/kg (n = 9), 15 minutes after start of infusion, Baseline 132.1) was 132.8 mmHg. The HR ([1]; 4 μg/kg (n = 9), 15 minutes after start of infusion, Baseline 143.9) was 100.1^b bpm, the DBP ([1]; 4 μg/kg (n = 9), 30 minutes after start of infusion (BP 35 minutes, footnote c), Baseline 75.0) was 72.2 mmHg and the SBP ([1]; 4 μg/kg (n = 9), 30 minutes after start of infusion (BP 35 minutes, footnote c), Baseline 132.1) was 122.0 mmHg. The DBP ([1]; 6 μg/kg (n = 9), 5 minutes after start of infusion, Baseline 69.4) was 72.9 mmHg, the SBP ([1]; 6 μg/kg (n = 9), 5 minutes after start of infusion, Baseline 122.1) was 126.8 mmHg and the HR ([1]; 6 μg/kg (n = 9), 5 minutes after start of infusion, Baseline 140.2) was 117.1^a bpm. For the same compound, the DBP ([1]; 6 μg/kg (n = 9), 15 minutes after start of infusion, Baseline 69.4) was 70.4 mmHg, the SBP ([1]; 6 μg/kg (n = 9), 15 minutes after start of infusion, Baseline 122.1) was 126.8 mmHg and the HR ([1]; 6 μg/kg (n = 9), 15 minutes after start of infusion, Baseline 140.2) was 100.4^b bpm. For the same compound, the DBP ([1]; 6 μg/kg (n = 9), 30 minutes after start of infusion (BP 35 minutes, footnote c), Baseline 69.4) was 68.7 mmHg, the SBP ([1]; 6 μg/kg (n = 9), 30 minutes after start of infusion (BP 35 minutes, footnote c), Baseline 122.1) was 115.4 mmHg and the HR ([1]; 6 μg/kg (n = 9), 30 minutes after start of infusion, Baseline 140.2) was 114.4^a bpm. For the same compound, the DBP ([1]; 8 μg/kg (n = 7), 5 minutes after start of infusion, Baseline 82.3) was 85.1 mmHg, the SBP ([1]; 8 μg/kg (n = 7), 5 minutes after start of infusion, Baseline 131.6) was 141.4 mmHg and the HR ([1]; 8 μg/kg (n = 7), 5 minutes after start of infusion, Baseline 133.7) was 101.4^a bpm. For the same compound, the DBP ([1]; 8 μg/kg (n = 7), 15 minutes after start of infusion, Baseline 82.3) was 80.3 mmHg, the SBP ([1]; 8 μg/kg (n = 7), 15 minutes after start of infusion, Baseline 131.6) was 145.3 mmHg and the HR ([1]; 8 μg/kg (n = 7), 15 minutes after start of infusion, Baseline 133.7) was 90.9^a bpm. The DBP ([1]; 8 μg/kg (n = 7), 30 minutes after start of infusion (BP 35 minutes, footnote c), Baseline 82.3) was 77.4 mmHg, the SBP ([1]; 8 μg/kg (n = 7), 30 minutes after start of infusion (BP 35 minutes, footnote c), Baseline 131.6) was 134.4 mmHg and the HR ([1]; 8 μg/kg (n = 7), 30 minutes after start of infusion, Baseline 133.7) was 96.3^a bpm. The DBP ([1]; 10 μg/kg (n = 8), 5 minutes after start of infusion, Baseline 75.9) was 83.1 mmHg, the SBP ([1]; 10 μg/kg (n = 8), 5 minutes after start of infusion, Baseline 128.3) was 140.6 mmHg and the HR ([1]; 10 μg/kg (n = 8), 5 minutes after start of infusion, Baseline 142.5) was 110.0^b bpm. For the same compound, the DBP ([1]; 10 μg/kg (n = 8), 15 minutes after start of infusion, Baseline 75.9) was 73.0 mmHg, the SBP ([1]; 10 μg/kg (n = 8), 15 minutes after start of infusion, Baseline 128.3) was 125.8 mmHg and the HR ([1]; 10 μg/kg (n = 8), 15 minutes after start of infusion, Baseline 142.5) was 95.4^a bpm. The DBP ([1]; 10 μg/kg (n = 8), 30 minutes after start of infusion (BP 35 minutes, footnote c), Baseline 75.9) was 71.3 mmHg, the SBP ([1]; 10 μg/kg (n = 8), 30 minutes after start of infusion (BP 35 minutes, footnote c), Baseline 128.3) was 126.1 mmHg and the HR ([1]; 10 μg/kg (n = 8), 30 minutes after start of infusion, Baseline 142.5) was 104.6^a bpm. For the same compound, the DBP ([1]; 12 μg/kg (n = 4), 5 minutes after start of infusion, Baseline 80.5) was 82.5 mmHg, the SBP ([1]; 12 μg/kg (n = 4), 5 minutes after start of infusion, Baseline 119.5) was 131.5 mmHg and the HR ([1]; 12 μg/kg (n = 4), 5 minutes after start of infusion, Baseline 120.0) was 82.0^a bpm. For the same compound, the DBP ([1]; 12 μg/kg (n = 4), 15 minutes after start of infusion, Baseline 80.5) was 78.5 mmHg, the SBP ([1]; 12 μg/kg (n = 4), 15 minutes after start of infusion, Baseline 119.5) was 122.5 mmHg and the HR ([1]; 12 μg/kg (n = 4), 15 minutes after start of infusion, Baseline 120.0) was 74.5^a bpm. For the same compound, the DBP ([1]; 12 μg/kg (n = 4), 30 minutes after start of infusion (BP 35 minutes, footnote c), Baseline 80.5) was 68.5^a mmHg, the SBP ([1]; 12 μg/kg (n = 4), 30 minutes after start of infusion (BP 35 minutes, footnote c), Baseline 119.5) was 118.5 mmHg and the HR ([1]; 12 μg/kg (n = 4), 30 minutes after start of infusion, Baseline 120.0) was 88.0^a bpm. For the same compound, the “changes in systolic or diastolic blood pressures” value ([1]; any treatment group, infusion period and up to 80 minutes post-infusion) was “no clinically significant changes”, the Vdss [2] was “approached body weight” and the “duration of inhibitory effects on CLCrea” value [2] was 1 to 2 h. The “duration of inhibitory effects on CLNa” value [2] was 3 to 4 h, the “time at which dose-dependent secondary effects (rebounds) in UF and natriuresis were apparent” value [2] was 5 to 10 h and the “CLnonren with increasing dose” value ([2]; 1 μg/kg vs 5 μg/kg) was “appeared unchanged”. The “CLren reduced with increasing dose” value ([2]; 1 μg/kg vs 5 μg/kg) was 29%, the “CLtot reduced with increasing dose” value ([2]; 1 μg/kg vs 5 μg/kg) was 25% and the “eliminated unchanged in urine” value ([2]; 30-minute i.v. infusion of 1 or 5 μg/kg) was “About 42%”. The “effect on diuresis, natriuresis and kaliuresis” value ([2]; initially, dose-dependent inhibition of CLcrea, CLNa and to a lesser extent CLK) was “transiently reduced diuresis, natriuresis and kaliuresis”, the “affinity for the A1 receptor higher than for the A3 receptor” value [3] was 11 fold and the “ventricular rate (VR)” value ([4]; LD 2.5 μg/kg, 5 min, Baseline 143) was 129^a bpm. For the same compound, the “ventricular rate (VR)” value ([4]; LD 2.5 μg/kg, 10 min, Baseline 143) was 117^a bpm, the “ventricular rate (VR)” value ([4]; LD 2.5 μg/kg, 15 min, Baseline 143) was 113^b bpm and the “ventricular rate (VR)” value ([4]; LD 2.5 μg/kg, 20 min, Baseline 143) was 115^b bpm. The “ventricular rate (VR)” value ([4]; LD 5.0 μg/kg, 5 min, Baseline 138) was 115^b bpm, the “ventricular rate (VR)” value ([4]; LD 5.0 μg/kg, 10 min, Baseline 138) was 104^b bpm and the “ventricular rate (VR)” value ([4]; LD 5.0 μg/kg, 15 min, Baseline 138) was 108^b bpm. The “ventricular rate (VR)” value ([4]; LD 5.0 μg/kg, 20 min, Baseline 138) was 111^b bpm, the “ventricular rate (VR)” value ([4]; LD 7.5 μg/kg, 5 min, Baseline 143) was 110^b,c bpm and the “ventricular rate (VR)” value ([4]; LD 7.5 μg/kg, 10 min, Baseline 143) was 99^b,c bpm. For the same compound, the “ventricular rate (VR)” value ([4]; LD 7.5 μg/kg, 15 min, Baseline 143) was 105^b bpm, the “ventricular rate (VR)” value ([4]; LD 7.5 μg/kg, 20 min, Baseline 143) was 106^b bpm and the “VR during maintenance dose” value ([4]; all dosing regimens, 3-hour MD) was “below 100 bpm”. The “systolic and diastolic blood pressures” value ([4]; during the LD) was “did not change significantly”.
